Laboratory results taken from patent US20210163424A1, “ECO-FRIENDLY MATERIALS AND METHODS FOR RENEWABLE AND SUSTAINABLE APPLICATIONS IN MATERIAL CHEMISTRY” (NDSU RESEARCH FOUNDATION, priority 2016, published 2021).

How the values were obtained:
[1] = Ground state acidity (pKa) from α-plot of UV-Vis spectra at various pH; assay type: physicochemical
Method: (§1) Thus pKa* is most commonly calculated from the difference in the S1 excited state 0-0 transition of the acid (EHA) and the conjugate base (EA−)(2c). In order to determine the excited state acidity of the vanillin analogs, the ground state acidity was determined. An α-plot was made, by taking the UV-Vis spectra of ortho-vanillin at various pH using NaOH and HCl as the base and acid respectively (5c). Both iso-vanillin and vanillin ground state acidities were literature reported. After obtaining the ground state acidity the excited state acidity (pKa*) was investigated. Fluorescence, phosphorescence and luminescence spectra were measured in different solvents. It was determined that none of the vanillin analogs fluoresced appreciably and therefore were all poor photoacids. […] Various substituted Grignard reagents were used to reduce the carbonyl to a tertiary alcohol therefore eliminating the carbonyl functionality and hindering inter-system crossing (FIG. 32).
(§2) The ground state and excited state acidities were determined. […] Derivatives 1a and 1b were handled in a similar fashion.

[2] = Excited state acidity / photoacidity (pKa*) from Foster cycle; assay type: physicochemical
From the text: Investigations commenced determining the extent or existence of excited state proton transfer, photoacidity (pKa*), of vanillin and its analogs ortho-vanillin and iso-vanillin. From the Foster cycle, pKa* is mathematically defined by the following equation,
=pKa*+pKa+(EA−−EHA)/2.3RT.^1 (1)
as §1, §2

pKa [1]	pKa* [2]	Compound
9.8	9.6	COc1cc(C(C)O)ccc1O (stereo not drawn) [1a]
9.8	5.6	COc1ccc(C(C)O)cc1O (stereo not drawn) [1b]
8	4.9	COc1cccc(C(C)O)c1O (stereo not drawn) [1c]
